Experimental data as given in ChEMBL document CHEMBL1201862, “PubChem BioAssay data set” (2004).
Values joined by “and” are separate entries in the source; they are usually repeats but may differ in a detail not shown here. Equal values may be shown once.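 Tested at 5 concentrations; 48 h exposure; 96-well plates; endpoints linearly interpolated, else capped at highest concentration. The concentration for 50% growth inhibition is given as GI50.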 Active and inactive are the calls of the source. Rule as the data show it: active = GI50 up to about 1.1 µM and inactive = higher.

Columns and labels:
Assay in all cases: NCI-60 cell line screen, 48 h
HCT-15 = system: HCT-15
MDA-N = system: MDA-N
SW-620 = system: SW-620
PC-3 = system: PC-3
T47D = system: T47D
TK-10 = system: TK-10
MOLT-4 = system: MOLT-4
K562 = system: K562
SK-MEL-2 = system: SK-MEL-2
ACHN = system: ACHN
SN12C = system: SN12C
NCI-H460 = system: NCI-H460
SNB-75 = system: SNB-75
MDA-MB-435 = system: MDA-MB-435
EKVX = system: EKVX
RXF 393 = system: RXF 393
MCF7 = system: MCF7
COLO 205 = system: COLO 205
SK-OV-3 = system: SK-OV-3
NCI/ADR-RES = system: NCI/ADR-RES

Compound	GI50 (HCT-15) [µM]	GI50 (MDA-N)	GI50 (SW-620)	GI50 (PC-3)	GI50 (T47D)	GI50 (TK-10)	GI50 (MOLT-4)	GI50 (K562)	GI50 (SK-MEL-2)	GI50 (ACHN)	GI50 (SN12C)	GI50 (NCI-H460)	GI50 (SNB-75)	GI50 (MDA-MB-435)	GI50 (EKVX)	GI50 (RXF 393)	GI50 (MCF7)	GI50 (COLO 205)	GI50 (SK-OV-3)	GI50 (NCI/ADR-RES)
Cc1cc(Cl)ccc1/N=N/C(=O)NNc1ccc(Cl)cc1C	12.2	16.3 µM (inactive)	15.9 µM (inactive)	10.4 µM (inactive)	5.87 µM (inactive)	18.2 µM (inactive)	14 µM (inactive)	22 µM (inactive)	14.1 µM (inactive)	16.1 µM (inactive)	15.4 µM (inactive)	14.4 µM (inactive)	15.6 µM (inactive)	20.7 µM (inactive)	–	–	–	–	–	–
Oc1ccccc1C(c1cc2c(cc1O)OCO2)N1CCOCC1 (stereo not drawn)	16.4	18.7 µM (inactive)	23 µM (inactive)	16.3 µM (inactive)	16.7 µM (inactive)	> 10 µM (inactive)	8.24 µM (inactive)	5.25 µM (inactive)	17.8 µM (inactive)	17.5 µM (inactive)	19.1 µM (inactive)	27.4 µM (inactive)	16.4 µM (inactive)	18.2 µM (inactive)	50.9 µM (inactive)	14.3 µM (inactive)	19.4 µM (inactive)	18.7 µM (inactive)	19.8 µM (inactive)	–
CCOC(=O)Nc1sc2c(c1C#N)CCCC2	79.4	50.4 µM (inactive)	> 100 µM (inactive)	66.4 µM (inactive)	–	> 100 µM (inactive)	62.5 µM (inactive)	33.1 µM (inactive)	> 100 µM (inactive)	> 100 µM (inactive)	> 100 µM (inactive)	> 100 µM (inactive)	–	48.2 µM (inactive)	25.9 µM (inactive)	> 100 µM (inactive)	> 100 µM (inactive)	> 100 µM (inactive)	> 100 µM (inactive)	–
O=C1CN(c2ccccc2)C(=O)CN1CCN1CC(=O)N(c2ccccc2)CC1=O	> 100	> 100 µM (inactive)	> 100 µM (inactive)	> 100 µM (inactive)	–	> 100 µM (inactive)	> 10 µM (inactive)	–	–	> 100 µM (inactive)	> 100 µM (inactive)	> 100 µM (inactive)	> 100 µM (inactive)	> 100 µM (inactive)	> 100 µM (inactive)	> 100 µM (inactive)	> 100 µM (inactive)	> 100 µM (inactive)	> 100 µM (inactive)	–
O=C1C=CC(=O)c2ccc(=O)ccc21	17	13.3 µM (inactive)	3.74 µM (inactive)	17.8 µM (inactive)	2.34 µM (inactive)	17.6 µM (inactive)	1.87 µM (inactive)	2.4 µM (inactive)	18.1 µM (inactive)	9.68 µM (inactive)	17.3 µM (inactive)	21.2 µM (inactive)	19.9 µM (inactive)	21.5 µM (inactive)	22.4 µM (inactive)	6.31 µM (inactive)	28.8 µM (inactive)	5.01 µM (inactive)	24.1 µM (inactive)	–
CC1(C)CCCC2(C)C3C(O)CC2(C)C(O)C31 (stereo not drawn)	> 100	–	> 100 µM (inactive)	–	–	> 100 µM (inactive)	> 100 µM (inactive)	> 100 µM (inactive)	> 100 µM (inactive)	> 100 µM (inactive)	> 100 µM (inactive)	> 100 µM (inactive)	> 100 µM (inactive)	–	> 100 µM (inactive)	> 100 µM (inactive)	–	> 100 µM (inactive)	> 100 µM (inactive)	–
CN1CCc2cc3c4cc2C1Cc1ccc(cc1)Oc1cc(ccc1O)CC1c2c(cc(O)c(c2O4)O3)CCN1C (stereo not drawn)	1.91	–	2.22 µM (inactive)	–	–	10.6 µM (inactive)	2.03 µM (inactive)	0.9 µM (active)	1.67 µM (inactive)	7.52 µM (inactive)	3.63 µM (inactive)	1.87 µM (inactive)	3.53 µM (inactive)	–	7.08 µM (inactive)	3.24 µM (inactive)	–	5.65 µM (inactive)	3.1 µM (inactive)	–
COC(=O)C1CCCC2(C1)OCCO2 (stereo not drawn)	> 100	–	> 100 µM (inactive)	–	–	> 100 µM (inactive)	> 100 µM (inactive)	> 100 µM (inactive)	> 100 µM (inactive)	> 100 µM (inactive)	> 100 µM (inactive)	> 100 µM (inactive)	> 100 µM (inactive)	–	> 100 µM (inactive)	> 100 µM (inactive)	–	> 100 µM (inactive)	> 100 µM (inactive)	–
CCc1c(OC(C)=O)c2c(NC3OCC(OC(C)=O)C(OC(C)=O)C3OC(C)=O)nc(SC)nc2oc1=O (stereo not drawn)	> 100	–	> 100 µM (inactive)	–	–	> 100 µM (inactive)	> 100 µM (inactive)	> 100 µM (inactive)	> 100 µM (inactive)	> 100 µM (inactive)	> 100 µM (inactive)	> 100 µM (inactive)	> 100 µM (inactive)	–	> 100 µM (inactive)	> 100 µM (inactive)	–	> 100 µM (inactive)	> 100 µM (inactive)	–
C=C1C(=O)C23CC1CCC2C12CO[C@@H]4OCC(C)(CC[C@@H]1OC3=O)C42 (stereo partly drawn)	2.9	–	2.49 µM (inactive)	–	–	5.75 µM (inactive)	3.01 µM (inactive)	7.69 µM (inactive)	11.9 µM (inactive)	3.14 µM (inactive)	8.32 µM (inactive)	6.64 µM (inactive)	16.4 µM (inactive)	–	15.5 µM (inactive)	2.51 µM (inactive)	–	2.1 µM (inactive)	23.3 µM (inactive)	–
O=C(c1ccccc1)N1C(=O)N(c2ccccc2)C(=N/c2ccccc2)/C1=N\c1ccccc1	64	> 100 µM (inactive)	> 100 µM (inactive)	> 100 µM (inactive)	> 100 µM (inactive)	> 100 µM (inactive)	19.5 µM (inactive)	7.36 µM (inactive)	29.9 µM (inactive)	80.7 µM (inactive)	> 100 µM (inactive)	15 µM (inactive)	> 100 µM (inactive)	> 100 µM (inactive)	> 100 µM (inactive)	99.3 µM (inactive)	–	70.5 µM (inactive)	> 100 µM (inactive)	> 100 µM (inactive)
COCOC1C=CCCCC2=CC(C)=C(CC1)O2 (stereo not drawn)	> 100	> 100 µM (inactive)	> 100 µM (inactive)	> 100 µM (inactive)	–	> 100 µM (inactive)	42.3 µM (inactive)	> 100 µM (inactive)	–	> 100 µM (inactive)	> 100 µM (inactive)	> 100 µM (inactive)	> 100 µM (inactive)	> 100 µM (inactive)	> 100 µM (inactive)	> 100 µM (inactive)	> 100 µM (inactive)	> 100 µM (inactive)	> 100 µM (inactive)	> 100 µM (inactive)
COc1ncn(C2C=C(CO)C(O)C2O)c(=O)n1 (stereo not drawn)	> 100	–	< 0.01 µM (active)	–	–	> 100 µM (inactive)	> 100 µM (inactive)	> 100 µM (inactive)	> 100 µM (inactive)	> 100 µM (inactive)	> 100 µM (inactive)	> 100 µM (inactive)	> 100 µM (inactive)	–	> 100 µM (inactive)	> 100 µM (inactive)	–	> 100 µM (inactive)	> 100 µM (inactive)	–
O=C1C(=Cc2c(O)cc(O)cc2O)C(=O)c2ccccc21	> 46.8	–	> 42.1 µM (inactive)	–	–	> 46.6 µM (inactive)	39.8 µM (inactive)	> 51.8 µM (inactive)	> 40.1 µM (inactive)	> 40.8 µM (inactive)	19.5 µM (inactive)	> 45.5 µM (inactive)	26.3 µM (inactive)	–	> 79.8 µM (inactive)	14.3 µM (inactive)	–	> 41.5 µM (inactive)	> 100 µM (inactive)	–
O=C1c2ccccc2C2(O)N(c3ccccc3)C(=S)N(c3ccccc3)C12O (stereo not drawn)	> 100	–	> 100 µM (inactive)	–	–	> 100 µM (inactive)	> 100 µM (inactive)	> 100 µM (inactive)	> 100 µM (inactive)	> 100 µM (inactive)	> 100 µM (inactive)	> 100 µM (inactive)	> 100 µM (inactive)	–	> 100 µM (inactive)	> 100 µM (inactive)	–	> 100 µM (inactive)	> 100 µM (inactive)	–
O=C(O)C12C3CCC(O3)C1(C(=O)O)C1CCC2O1 (stereo not drawn)	> 100	–	> 100 µM (inactive)	> 100 µM (inactive)	> 100 µM (inactive)	> 100 µM (inactive)	> 100 µM (inactive)	> 100 µM (inactive)	> 100 µM (inactive)	> 100 µM (inactive)	> 100 µM (inactive)	> 100 µM (inactive)	> 100 µM (inactive)	> 100 µM (inactive)	–	> 100 µM (inactive) and 53.6 µM (inactive)	> 100 µM (inactive)	> 100 µM (inactive)	> 100 µM (inactive)	> 100 µM (inactive)
O=c1cc(-c2ccccc2)oc2cc(Oc3nnnn3-c3ccccc3)ccc12	29	41.5 µM (inactive)	> 100 µM (inactive)	39.4 µM (inactive)	11.7 µM (inactive)	67 µM (inactive)	32.4 µM (inactive)	32.6 µM (inactive)	28.4 µM (inactive)	4.18 µM (inactive)	60.8 µM (inactive)	36.8 µM (inactive)	–	15.5 µM (inactive)	35.8 µM (inactive)	–	16.3 µM (inactive)	35.1 µM (inactive)	36 µM (inactive)	–
COc1cc(CCCOC(=O)/C=C/c2ccc(O)c(O)c2)cc(O)c1O	91.8	22.8 µM (inactive)	18.8 µM (inactive)	32.4 µM (inactive)	27.9 µM (inactive)	> 100 µM (inactive)	27.5 µM (inactive)	33.2 µM (inactive)	83.2 µM (inactive)	> 100 µM (inactive)	29.2 µM (inactive)	49.8 µM (inactive)	35.2 µM (inactive)	28.6 µM (inactive)	> 100 µM (inactive)	73.6 µM (inactive)	24.8 µM (inactive)	94.6 µM (inactive)	> 100 µM (inactive)	–
